Common to all, as to format: cell-based
Experiment [1] deals with T1, human muscarinic M4 receptor (Homo sapiens, UniProt P08173).
T1 sequence (P08173 1-479): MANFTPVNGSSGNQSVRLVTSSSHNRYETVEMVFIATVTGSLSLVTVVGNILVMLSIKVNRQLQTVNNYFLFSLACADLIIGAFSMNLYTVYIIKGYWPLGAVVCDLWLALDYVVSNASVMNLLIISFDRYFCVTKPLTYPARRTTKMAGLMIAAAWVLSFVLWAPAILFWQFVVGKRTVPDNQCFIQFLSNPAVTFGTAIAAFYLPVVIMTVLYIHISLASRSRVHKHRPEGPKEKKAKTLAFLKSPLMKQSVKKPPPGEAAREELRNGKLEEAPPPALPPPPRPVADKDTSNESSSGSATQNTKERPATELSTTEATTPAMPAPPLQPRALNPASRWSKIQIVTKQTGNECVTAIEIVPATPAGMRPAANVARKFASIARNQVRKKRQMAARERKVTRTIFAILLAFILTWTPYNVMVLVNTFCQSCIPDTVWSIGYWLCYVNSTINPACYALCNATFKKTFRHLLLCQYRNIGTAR
Put plainly: Alphascreen Surefire phospho-ERK1/2 functional assay, M4. The settings on record: for % Emax cf. ACh, M4: CHO cells stably expressing human M4; for EC50: pEC50 M4, CHO cells stably expressing human M4, phospho-ERK1/2. The procedure, abridged: (§1)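 CHO cells stably expressing human M1, M2, M3 or M4 receptor, serum-starved overnight, then stimulated with agonist for 5 min at 37 °C. Cells lysed for 15 min and phospho-ERK1/2 detected in the lysate by AlphaScreen SureFire.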
On the technique in general: Bead proximity is the source of the signal in Alpha formats.

The target of experiment [2] is T2, human muscarinic M1 receptor (Homo sapiens, UniProt P11229).
T2 sequence (P11229 1-460): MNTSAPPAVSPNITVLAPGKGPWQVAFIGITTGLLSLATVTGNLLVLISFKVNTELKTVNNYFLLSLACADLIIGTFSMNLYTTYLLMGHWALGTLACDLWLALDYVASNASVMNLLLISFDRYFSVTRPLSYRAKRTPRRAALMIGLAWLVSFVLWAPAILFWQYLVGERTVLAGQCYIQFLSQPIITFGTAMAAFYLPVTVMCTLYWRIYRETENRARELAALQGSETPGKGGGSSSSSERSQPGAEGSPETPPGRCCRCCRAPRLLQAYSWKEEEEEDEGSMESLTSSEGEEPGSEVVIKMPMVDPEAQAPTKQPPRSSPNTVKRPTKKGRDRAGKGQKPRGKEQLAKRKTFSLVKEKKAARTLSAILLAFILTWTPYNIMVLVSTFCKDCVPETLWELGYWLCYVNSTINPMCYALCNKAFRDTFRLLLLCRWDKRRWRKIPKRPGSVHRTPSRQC
Description: Alphascreen Surefire phospho-ERK1/2 functional assay, M1. The settings on record: for % Emax cf. ACh, M1: CHO cells stably expressing human M1; for % Emax cf. ACh, M1 / Emax: Emax relative to ACh; for EC50: pEC50 M1, CHO cells stably expressing human M1, phospho-ERK1/2; for Emax: CHO, read-out: % Emax cf. ACh, M1, CHO cells stably expressing human M1. The procedure, abridged:
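Stably transfected CHO cells, serum-starved overnight, then exposed to agonist for 5 min at 37 °C. Cells lysed and phospho-ERK1/2 measured by AlphaScreen SureFire.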

Experiment [3] has as its target T3, human muscarinic M3 receptor (Homo sapiens, UniProt P20309).
T3 construct: expressed in transfected cells
Description: Alphascreen Surefire phospho-ERK1/2 functional assay, M3. The settings on record: for % Emax cf. ACh, M3: CHO cells stably expressing human M3; for % Emax cf. ACh, M3 / Emax: Emax relative to ACh; for Emax: CHO, read-out: % Emax cf. ACh, M3, CHO cells stably expressing human M3; for EC50: pEC50 M3, CHO cells stably expressing human M3, phospho-ERK1/2. The procedure, abridged:
as §1

Experiment [4] deals with T4, human muscarinic M2 receptor (Homo sapiens, UniProt P08172).
T4 sequence (P08172 1-466): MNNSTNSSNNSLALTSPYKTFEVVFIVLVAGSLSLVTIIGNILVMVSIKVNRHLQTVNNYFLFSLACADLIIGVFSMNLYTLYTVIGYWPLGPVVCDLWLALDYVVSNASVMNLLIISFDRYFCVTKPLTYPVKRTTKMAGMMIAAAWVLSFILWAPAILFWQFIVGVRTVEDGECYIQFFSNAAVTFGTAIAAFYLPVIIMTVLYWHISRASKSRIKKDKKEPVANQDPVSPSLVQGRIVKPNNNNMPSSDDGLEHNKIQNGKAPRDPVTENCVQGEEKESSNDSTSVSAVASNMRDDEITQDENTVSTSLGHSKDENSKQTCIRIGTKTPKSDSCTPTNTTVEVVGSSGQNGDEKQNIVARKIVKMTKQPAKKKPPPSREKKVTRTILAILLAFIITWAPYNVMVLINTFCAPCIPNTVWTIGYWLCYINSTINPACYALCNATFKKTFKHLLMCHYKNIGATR
Description: Alphascreen Surefire phospho-ERK1/2 functional assay, M2. The settings on record: for % Emax cf. ACh, M2: CHO cells stably expressing human M2, Emax relative to ACh; for EC50: pEC50 M2, CHO cells stably expressing human M2, phospho-ERK1/2. The procedure, abridged:
as §1

Some results are limits rather than exact numbers.

T3 sequence (P20309 whole entry): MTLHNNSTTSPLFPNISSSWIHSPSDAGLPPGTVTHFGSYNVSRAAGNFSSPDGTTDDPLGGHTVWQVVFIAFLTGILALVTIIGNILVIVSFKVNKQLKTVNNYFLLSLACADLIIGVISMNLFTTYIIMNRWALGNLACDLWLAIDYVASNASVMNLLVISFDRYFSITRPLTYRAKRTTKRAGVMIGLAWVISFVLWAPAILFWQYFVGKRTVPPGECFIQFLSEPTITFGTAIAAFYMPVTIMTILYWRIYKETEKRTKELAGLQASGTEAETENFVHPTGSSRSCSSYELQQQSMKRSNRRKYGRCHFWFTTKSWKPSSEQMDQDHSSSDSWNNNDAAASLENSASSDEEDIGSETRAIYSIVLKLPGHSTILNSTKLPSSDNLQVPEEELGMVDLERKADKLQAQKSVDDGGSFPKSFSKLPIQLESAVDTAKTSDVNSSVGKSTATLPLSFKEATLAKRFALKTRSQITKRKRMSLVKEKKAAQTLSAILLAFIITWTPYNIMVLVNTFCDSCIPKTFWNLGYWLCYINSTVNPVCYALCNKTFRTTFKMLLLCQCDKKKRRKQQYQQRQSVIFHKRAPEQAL

What is called EC50 is the concentration giving half of the maximal effect. Read a high EC50 as a need for much substance. On to `CCOC(=O)N1C2COCC1CC(N1CCC3(CC1)OC(=O)NC3CC)C2` (single isomer, unassigned) [Example 5-4 Isomer 2b, Ethyl 7-(4-ethyl-2-oxo-1-oxa-3,8-diazaspiro[4.5]dec-8-yl)-3-oxa-9-azabicyclo[3.3.1]nonane-9-carboxylate], for which the “% Emax cf. ACh, M4” value in experiment [1] (Emax relative to ACh, listed as 5-4 Isomer 2b) is 20%. Moreover, the EC50 is above 20000 nM in experiment [1] and 74.1 nM in experiment [2]. Moreover, the “% Emax cf. ACh, M1” value in experiment [2] (listed as 5-4 Isomer 2b) is 25%. Further, in experiment [3], the “% Emax cf. ACh, M3” value was 4%. Further, in experiment [4] (listed as 5-4 Isomer 2b), the “% Emax cf. ACh, M2” value stood at 1%.
The term Emax denotes the size of the effect at its maximum, as opposed to the concentration needed. As for `CCOC(=O)N1C2COCC1CC(N1CCC3(CC1)C(=O)Nc1ccccc13)C2` (single isomer, unassigned) [Example 5-5 Isomer 1, Ethyl 7-(2-oxo-1,2-dihydro-1′H-spiro[indole-3,4′-piperidin]-1′-yl)-3-oxa-9-azabicyclo[3.3.1]nonane-9-carboxylate], the Emax in experiment [1] (CHO, read-out: % Emax cf. ACh, M4, CHO cells stably expressing human M4, Emax relative to ACh) stood at 99%; in experiment [3], 4%. The concentration giving a half-maximal response (EC50) in experiment [1] was 21.4 nM; in experiment [2], 288 nM; in experiment [3], above 20000 nM; in experiment [4], 123 nM. Further, in experiment [2] (listed as 5-5 Isomer 1), the “% Emax cf. ACh, M1” value is listed as 75%. The “% Emax cf. ACh, M2” value in experiment [4] (listed as 5-5 Isomer 1) was determined as 24%.
Take `CCOC(=O)N1C2COCC1CC(N1CCC(N(CC(C)C)C(C)=O)CC1)C2` (single isomer, unassigned) [Example 6-1 Isomer 1, Ethyl 7-{4-[acetyl(2-methylpropyl)amino]piperidin-1-yl}-3-oxa-9-azabicyclo[3.3.1]nonane-9-carboxylate]: the “% Emax cf. ACh, M4” value in experiment [1] (Emax relative to ACh, listed as 6-1 Isomer 1) is reported as 77%. Besides, the EC50 was 151 nM in experiment [1], 178 nM in experiment [2], above 20000 nM in experiment [3] and above 20000 nM in experiment [4]. Moreover, in experiment [2], the maximal effect (Emax) worked out at 93%. The “% Emax cf. ACh, M3” value in experiment [3] (listed as 6-1 Isomer 1) came to 7%. Also, the “% Emax cf. ACh, M2” value in experiment [4] (listed as 6-1 Isomer 1) was 26%.
Turning to `CCOC(=O)N1C2COCC1CC(N1CCC(N(CC(C)C)C(C)=O)CC1)C2` (single isomer, unassigned) [Example 6-1 Isomer 2, Ethyl 7-{4-[acetyl(2-methylpropyl)amino]piperidin-1-yl}-3-oxa-9-azabicyclo[3.3.1]nonane-9-carboxylate], in experiment [1] (Emax relative to ACh, listed as 6-1 Isomer 2), the “% Emax cf. ACh, M4” value came out at 111%. Besides, the values for the EC50 in experiment [1], in experiment [2] and in experiment [4] were 17.4 nM, 61.7 nM and 324 nM, respectively. In addition, the “% Emax cf. ACh, M1” value in experiment [2] is 102%. In addition, the “% Emax cf. ACh, M3” value in experiment [3] (listed as 6-1 Isomer 2) came to 62%. For the same compound, in experiment [4] (listed as 6-1 Isomer 2), the “% Emax cf. ACh, M2” value came to 90%.
As to `CCOC(=O)N1C2COCC1CC(N1CCC(N(CC3(C)CC3)C(C)=O)CC1)C2` (single isomer, unassigned) [Example 6-3 Isomer 1, Ethyl 7-(4-{acetyl[(1-methylcyclopropyl)methyl]amino}piperidin-1-yl)-3-oxa-9-azabicyclo[3.3.1]nonane-9-carboxylate], in experiment [1] (Emax relative to ACh, listed as 6-3 Isomer 1), the “% Emax cf. ACh, M4” value is listed as 93%. The EC50 in experiment [1] is 60.3 nM; in experiment [2], 120 nM; in experiment [3] it was above 20000 nM; in experiment [4], 355 nM. In addition, in experiment [2] (listed as 6-3 Isomer 1), the “% Emax cf. ACh, M1” value was found to be 124%. Besides, the “% Emax cf. ACh, M3” value in experiment [3] (listed as 6-3 Isomer 1) is on record as 390%. Further, the “% Emax cf. ACh, M2” value in experiment [4] (listed as 6-3 Isomer 1) is 36%.
With `CCOC(=O)N1C2COCC1CC(N1CCC(N(CC3(C)CC3)C(C)=O)CC1)C2` (single isomer, unassigned) [Example 6-3 Isomer 2], the “% Emax cf. ACh, M4” value in experiment [1] (Emax relative to ACh, listed as 6-3 Isomer 2) turned out to be 44%. The concentration giving a half-maximal response (EC50) was 389 nM in experiment [1], 195 nM in experiment [2] and above 20000 nM in experiment [4]. For the same compound, the “% Emax cf. ACh, M1” value in experiment [2] (listed as 6-3 Isomer 2) stood at 90%. Further, in experiment [3] (listed as 6-3 Isomer 2), the “% Emax cf. ACh, M3” value is listed as 9%. Besides, the “% Emax cf. ACh, M2” value in experiment [4] (listed as 6-3 Isomer 2) was found to be 11%.
As to `CCOC(=O)N1C2COCC1CC(N1CCC(N(CC3(C)CCC3)C(C)=O)CC1)C2` (single isomer, unassigned) [Example 6-4 Isomer 2, Ethyl 7-(4-{acetyl[(1-methylcyclobutyl)methyl]amino}piperidin-1-yl)-3-oxa-9-azabicyclo[3.3.1]nonane-9-carboxylate], in experiment [1] (Emax relative to ACh, listed as 6-4 Isomer 2), the “% Emax cf. ACh, M4” value turned out to be 38%. In addition, the half-maximal effective concentration (EC50) in experiment [1] was 204 nM; in experiment [2], 33.9 nM; in experiment [3], above 20000 nM; in experiment [4], above 20000 nM. Also, the “% Emax cf. ACh, M1” value in experiment [2] (listed as 6-4 Isomer 2) worked out at 72%. Also, the maximal effect (Emax) in experiment [3] came out at 19%. Further, the “% Emax cf. ACh, M2” value in experiment [4] (listed as 6-4 Isomer 2) is 15%.
As for `CCOC(=O)N1C2COCC1CC(N1CCC(N(Cc3ccccc3)C(C)=O)CC1)C2` (single isomer, unassigned) [Example 6-5 Isomer 1, Ethyl 7-{4-[acetyl(benzyl)amino]piperidin-1-yl}-3-oxa-9-azabicyclo[3.3.1]nonane-9-carboxylate], in experiment [1] (Emax relative to ACh, listed as 6-5 Isomer 1), the “% Emax cf. ACh, M4” value is given as 50%. For the same compound, the EC50 was 302 nM in experiment [1], 166 nM in experiment [2], above 20000 nM in experiment [3] and above 20000 nM in experiment [4]. In experiment [2], the Emax was determined as 92%. The “% Emax cf. ACh, M3” value in experiment [3] (listed as 6-5 Isomer 1) turned out to be 13%. Moreover, the “% Emax cf. ACh, M2” value in experiment [4] (listed as 6-5 Isomer 1) came out at 11%.
On to `CCOC(=O)N1C2COCC1CC(N1CCC(N(Cc3ccccc3)C(C)=O)CC1)C2` (single isomer, unassigned) [Example 6-5 Isomer 2, Ethyl 7-{4-[acetyl(benzyl)amino]piperidin-1-yl}-3-oxa-9-azabicyclo[3.3.1]nonane-9-carboxylate], for which the “% Emax cf. ACh, M4” value in experiment [1] (Emax relative to ACh, listed as 6-5 Isomer 2) was found to be 73%. Moreover, the 50% effective concentration (EC50) was 145 nM in experiment [1], 15.8 nM in experiment [2], 2820 nM in experiment [3] and 2340 nM in experiment [4]. Also, the “% Emax cf. ACh, M1” value in experiment [2] came to 91%. In experiment [3] (listed as 6-5 Isomer 2), the “% Emax cf. ACh, M3” value worked out at 83%. Besides, the “% Emax cf. ACh, M2” value in experiment [4] (listed as 6-5 Isomer 2) amounted to 68%.

Source of the values: patent publication US10787447B2, “Pharmaceutical compounds” (Heptares Therapeutics Limited, priority 2018, dated 2020).
